Experimental findings from patent publication US8188081B2, “Methods of treating inflammation using prokineticin 1 receptor antagonists” (Janssen Pharmaceutica, NV, priority 2005, dated 2012) are described below.

For one experiment, the system named is rat ileum. Nature of the experiment: Contractility of isolated rat GI segments ex vivo (myobath organ bath), response to PK1.
The next experiment addresses T1, GPR73 (PK1 receptor) (Homo sapiens, UniProt Q8TCW9).
T1 construct: expressed in transfected cells; host or cells: HEK 293
As to the kind of experiment: PK1 functional assay: screening for PK1 antagonists on the FLIPR (calcium dye) in HEK 293 GPR73 expressing cells. The experiment is classed as cell-based. Conditions: for IC50 / inhibition at 10 µM / Ca^2+ Mobilization % Inh @10 μM: HEK 293 GPR73 (PK1 receptor) expressing cells, FLIPR; for IC50: PK1 ligand at EC50, read-out: Ca^2+ Mobilization IC50; for inhibition at 10 µM: HEK293, 10 μM compound, read-out: Ca^2+ Mobilization % Inh @10 μM; for Ca^2+ Mobilization % Inh @10 μM: 10 μM compound. Here is the method:
At a time of 24 h prior to running the assay, in cell culture media (DMEM containing high Glucose and L-glutamine, 10% FBS, 1% Pen/Streptomycin, 1% Sodium Pyruvate, 20 mM HEPES, Zeocin 200 mg/L), 100 μL of 1.3*10^6/ml HEK 293 GPR73 (PK1 receptor) expressing cells were plated in a 96 well poly-d-lysine coated plate (Costar), and incubated at 37° C. and 5% CO2. On the day in which the assay was run, the media was removed and 200 μL of 5× Calcium Plus Dye (Molecular Devices) which was previously resuspended with 200 mL of assay buffer [HBSS w/Ca^2+ and Mg^2+ w/o phenol red, 20 mM HEPES, 0.1% BSA, 10 mL probenecid (710 mg probenecid in 5 mL of 1N NaOH, to which was then added 5 mL HBSS containing 20 mM HEPES)] was added to each well of the 96-well plate. The plate was incubated at 37° C. and 5% CO2 for 30 min in dark. The plate was removed and allowed to reach RT for 15 min in the dark. The assay was then run on the FLIPR. […] Baseline is described as the amount of relative fluorescence read when buffer alone is added to cells. Baseline was subtracted from all wells. Percent of control was calculated as follows: (Baseline subtracted well value is divided by baseline subtracted max value)*100. Percent inhibition is 100 minus the percent of control value.
IC50 values were calculated using GraphPad Prism.
Table 2 includes data generated from the PK1 functional assay described in Example 2.

Experiment [1] concerns the target T2, basolateral Na+-K+-2Cl- co-transporter (Rattus norvegicus, UniProt E9PTX9).
T2 sequence (E9PTX9 1-1203): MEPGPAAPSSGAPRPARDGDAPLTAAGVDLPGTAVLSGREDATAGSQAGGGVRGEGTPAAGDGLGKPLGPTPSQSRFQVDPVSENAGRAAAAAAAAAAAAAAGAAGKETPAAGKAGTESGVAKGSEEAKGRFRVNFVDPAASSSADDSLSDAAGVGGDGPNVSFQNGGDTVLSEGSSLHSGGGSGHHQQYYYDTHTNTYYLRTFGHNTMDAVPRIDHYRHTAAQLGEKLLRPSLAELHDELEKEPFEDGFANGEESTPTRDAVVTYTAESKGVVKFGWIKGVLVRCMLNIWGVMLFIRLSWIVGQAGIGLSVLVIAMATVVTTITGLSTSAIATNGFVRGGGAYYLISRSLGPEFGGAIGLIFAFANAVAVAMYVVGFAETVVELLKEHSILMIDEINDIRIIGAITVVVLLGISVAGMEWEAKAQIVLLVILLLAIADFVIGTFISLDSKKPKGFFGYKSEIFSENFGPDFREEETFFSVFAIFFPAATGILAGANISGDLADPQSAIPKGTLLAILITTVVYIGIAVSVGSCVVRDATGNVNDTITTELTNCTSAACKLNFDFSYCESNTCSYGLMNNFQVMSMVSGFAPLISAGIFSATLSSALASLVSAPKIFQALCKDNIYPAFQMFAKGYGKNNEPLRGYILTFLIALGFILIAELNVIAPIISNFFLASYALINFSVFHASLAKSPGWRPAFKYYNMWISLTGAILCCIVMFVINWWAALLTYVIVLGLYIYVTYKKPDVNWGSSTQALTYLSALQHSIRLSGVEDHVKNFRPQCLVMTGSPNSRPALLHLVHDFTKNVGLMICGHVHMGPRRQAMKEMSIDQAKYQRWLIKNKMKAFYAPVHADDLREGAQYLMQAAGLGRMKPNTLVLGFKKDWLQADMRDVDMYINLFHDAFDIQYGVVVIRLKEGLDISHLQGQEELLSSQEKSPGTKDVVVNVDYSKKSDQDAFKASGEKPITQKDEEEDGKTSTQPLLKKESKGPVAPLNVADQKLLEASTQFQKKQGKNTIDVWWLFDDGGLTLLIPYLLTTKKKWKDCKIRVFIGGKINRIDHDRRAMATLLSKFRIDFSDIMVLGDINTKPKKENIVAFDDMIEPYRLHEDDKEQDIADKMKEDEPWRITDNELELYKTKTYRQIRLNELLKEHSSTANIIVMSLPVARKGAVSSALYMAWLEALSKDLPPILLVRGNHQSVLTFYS
The conditions noted are these: bumetanide 500 μM. From the text: Methodology. The basic methodology for Using-type ion flux chambers used in these studies was the same as that described in detail above with the following modifications to the experimental protocol. To determine the mechanism of action of the pro-secretory action of PK1 on the epithelium, three separate approaches were utilized to abolish electrogenic chloride ion or bicarbonate ion transport across the epithelium. […] The second approach involved replacement of all chloride ions in the physiological buffer solution used to maintain living tissues in the Using chambers, thus substituting a chloride-free KRB solution by an equimolar substitution of isethionate and acetate salts for the chloride salts listed in the standard KRB recipe above. The third approach involved replacement of all bicarbonate ions in the physiological buffer solution, thus substituting a bicarbonate-free KRB solution by an equimolar substitution of Piperazine-N,N′-bis(2-ethanesulfonic acid) (PIPES) for the bicarbonate salt, and addition of 1 mM acetazolamide, a blocker of intracellular carbonic anhydrase, to prevent bicarbonate production by the enterocyte.

By IC50 is commonly meant the concentration that gives 50% inhibition.

“And” between values parts separate entries of the source, which are not always exact repeats. Equal values may be shown once. “Also recorded” adds a separate entry of the source.

T1 sequence (Q8TCW9 whole entry, species assumed): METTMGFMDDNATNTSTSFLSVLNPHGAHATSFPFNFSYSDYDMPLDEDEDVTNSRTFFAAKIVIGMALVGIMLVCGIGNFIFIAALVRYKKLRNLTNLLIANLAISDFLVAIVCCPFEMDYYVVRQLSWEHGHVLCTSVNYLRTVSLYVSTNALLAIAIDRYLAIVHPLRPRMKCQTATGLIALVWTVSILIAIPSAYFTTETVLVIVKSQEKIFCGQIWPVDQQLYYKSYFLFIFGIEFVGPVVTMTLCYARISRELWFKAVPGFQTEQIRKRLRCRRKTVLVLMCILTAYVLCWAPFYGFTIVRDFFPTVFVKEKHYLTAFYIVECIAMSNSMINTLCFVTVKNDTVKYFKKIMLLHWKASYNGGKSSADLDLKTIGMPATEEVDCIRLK

For `CN1[C@@H]2CC[C@H]1C[C@@H](OC(=O)C(CO)c1ccccc1)C2` (stereo partly shown) [Atropine, reference compound], the “effect on the early component of the PK1-evoked contractile response” value with rat ileum is on record as “attenuate”.

As for `N=C(N)NCCNc1nc(=O)n(Cc2ccccc2)c(=O)n1Cc1ccc(F)cc1` [Cpd 1], on GPR73 (PK1 receptor), the half-inhibitory concentration (IC50) is more than 10 µM.

For `N=C(N)NCCNc1nc(=O)n(Cc2ccccc2)c(=O)n1Cc1cccc(C(F)(F)F)c1` [Cpd 7], on GPR73 (PK1 receptor), the IC50 is more than 10 µM.

Take `COc1ccc(Cn2c(NCCONC(=N)N)nc(=O)n(Cc3ccccc3)c2=O)cc1` [Cpd 10]: at GPR73 (PK1 receptor), the inhibition at 10 µM was determined as 33% and the IC50 is more than 10 µM.

Consider `N=C(N)NCCNc1nc(=O)n(Cc2ccccc2)c(=O)n1Cc1ccncc1` [Cpd 11], for which the 50% inhibitory concentration (IC50) at GPR73 (PK1 receptor) is more than 10 µM.

Turning to `COc1ccc(Cn2c(NCCNC(=N)N)nc(=O)n(Cc3ccccc3OC)c2=O)cc1` [Cpd 21], the IC50 on GPR73 (PK1 receptor) was more than 10 µM.

As for `COc1ccc(Cn2c(N[C@H]3CCCC[C@@H]3NC(=N)N)nc(=O)n(Cc3ccc(Cl)c(Cl)c3)c2=O)cc1` [Cpd 43], the concentration for half-maximal inhibition (IC50) on GPR73 (PK1 receptor) was more than 10 µM.

As for `COc1ccc(Cn2c(NCCNC(=N)NCCc3ccccc3)nc(=O)n(Cc3ccc(Cl)c(Cl)c3)c2=O)cc1` [Cpd 65], on GPR73 (PK1 receptor), the “Ca^2+ Mobilization % Inh @10 μM” value is on record as 88%.

As for `N=C(N)NCCNc1nc(=O)n(Cc2ccc(F)cc2)c(=O)n1Cc1ccc([N+](=O)[O-])cc1` [Cpd 87], the IC50 at GPR73 (PK1 receptor) was more than 10 µM.

`COc1ccc(Cn2c(NCCNC(=N)N)nc(=O)n(Cc3cccc(N)c3)c2=O)cc1` [Cpd 96]: on GPR73 (PK1 receptor), the 50% inhibitory concentration (IC50) was more than 10 µM.

On to `COc1ccc(Cn2c(NCCNC(=N)N)nc(=O)n(Cc3cccc(C#N)c3)c2=O)cc1` [Cpd 98], for which the 50% inhibitory concentration (IC50) on GPR73 (PK1 receptor) was more than 10 µM.

With `COc1ccc(Cn2c(NCCNC(=N)N)nc(=O)n(Cc3ccc(C(=O)O)cc3)c2=O)cc1` [Cpd 101, 4-[4-(2-Guanidino-ethylamino)-3-(4-methoxy-benzyl)-2,6-dioxo-3,6-dihydro-2H-[1,3,5]triazin-1-ylmethyl]-benzoic acid], at GPR73 (PK1 receptor), the concentration for half-maximal inhibition (IC50) was more than 10 µM.

In the case of `COc1ccc(Cn2c(NCCN(C(=N)N)c3ccccn3)nc(=O)n(Cc3ccc(F)cc3)c2=O)cc1` [Cpd 104, N-{2-[5-(4-Fluoro-benzyl)-1-(4-methoxy-benzyl)-4,6-dioxo-1,4,5,6-tetrahydro-[1,3,5]triazin-2-ylamino]-ethyl}-N-pyridin-2-yl-guanidine], on GPR73 (PK1 receptor) (10 µM), the “Ca^2+ Mobilization % Inh @10 μM” value was 99%.

`COc1ccc(Cn2c(NCCNC(=N)NCCc3ccccn3)nc(=O)n(Cc3ccc(F)cc3)c2=O)cc1` [Cpd 105]: on GPR73 (PK1 receptor), the “Ca^2+ Mobilization % Inh @10 μM” value worked out at 100%.

In the case of `COc1ccc(Cn2c(NCCNC(=N)N)nc(=O)n(CC(C)(C)C)c2=O)cc1` [Cpd 123], on GPR73 (PK1 receptor), the IC50 is more than 10 µM.

In the case of `COc1ccc(Cn2c(N[C@@H](C)[C@H](C)NC(=N)N)nc(=O)n(Cc3ccc(F)cc3)c2=O)cc1` [Cpd 136], on GPR73 (PK1 receptor), the 50% inhibitory concentration (IC50) is more than 10 µM.

As for `COc1ccc(Cn2c(N[C@H](C)[C@@H](C)NC(=N)N)nc(=O)n(Cc3ccc(F)cc3)c2=O)cc1` [Cpd 137], on GPR73 (PK1 receptor), the inhibition at 10 µM is 98%.

For `COc1ccc(Cn2c(=O)nc(NCCNC(=N)N)n(Cc3ccc(O)cc3)c2=O)cc1` [Cpd 143, N-{2-[1-(4-Hydroxy-benzyl)-5-(4-methoxy-benzyl)-4,6-dioxo-1,4,5,6-tetrahydro-[1,3,5]triazin-2-ylamino]-ethyl}-guanidine], the inhibition at 10 µM on GPR73 (PK1 receptor) was found to be 101%.

In the case of `COc1ccc(Cn2c(N[C@H]3CCCC[C@@H]3NC(=N)N)nc(=O)n(Cc3ccc(Cl)c(Cl)c3)c2=O)cc1` [JNJ 28611921], the “activity at the PK1 receptor” value on GPR73 (PK1 receptor) (cellular assay) is given as “lack significant activity; also recorded: not active”.

Turning to `NC1=N[C@H](O)[C@H]2[C@H]3O[C@]4(O)O[C@@H]([C@@H](O)[C@@]2(N1)[C@@H]4O)[C@]3(O)CO` [Tetrodotoxin, reference compound], in the experiment with rat ileum, the “effect on the early component of the PK1-evoked contractile response” value was “attenuate”.

Consider `CCCCNc1cc(C(=O)O)cc(S(N)(=O)=O)c1Oc1ccccc1` [bumetanide, Bumetanide], for which the “effect on baseline G” value in experiment [1] is “did not significantly change”. For the same molecule, the “change in baseline Isc after addition to the serosal bathing solution” value in experiment [1] (n=5, not significantly different from DMSO vehicle) was −7.1+/−8.6 μA/cm^2. The “attenuation of the PK1-evoked increase in Isc” value in experiment [1] (serosal) is on record as more than 90%.

As for “N-Benzoyl-N-{2-[5-(4-fluoro-benzyl)-1-(4-methoxy-benzyl)-4,6-dioxo-1,4,5,6-tetrahydro-[1,3,5]triazin-2-ylamino]-ethyl}-guanidine [Cpd 134]”, at GPR73 (PK1 receptor), the “Ca^2+ Mobilization % Inh @10 μM” value is 97, 97%; the half-inhibitory concentration (IC50) was 0.019 µM and 0.028 µM.

“N-{2-[5-(3,4-Dichloro-benzyl)-1-(4-methoxy-benzyl)-4,6-dioxo-1,4,5,6-tetrahydro-[1,3,5]triazin-2-ylamino]-ethyl}-N-isopropyl-guanidine [Cpd 58]”: at GPR73 (PK1 receptor) (10 µM), the “Ca^2+ Mobilization % Inh @10 μM” value was 102% and 99%.

For “N-{2-[5-(4-Fluoro-benzyl)-1-(4-methoxy-benzyl)-4,6-dioxo-1,4,5,6-tetrahydro-[1,3,5]triazin-2-ylamino]-ethyl}-N-(2-fluoro-phenyl)-guanidine [Cpd 118]”, on GPR73 (PK1 receptor) (10 µM), the “Ca^2+ Mobilization % Inh @10 μM” value was 98% and 102%. For the same molecule, the IC50 at GPR73 (PK1 receptor) worked out at 0.006 µM.

Consider “N-{2-[5-(4-Fluoro-benzyl)-1-(4-methoxy-benzyl)-4,6-dioxo-1,4,5,6-tetrahydro-[1,3,5]triazin-2-ylamino]-ethyl}-N-(4-fluoro-phenyl)-guanidine [Cpd 119]”, for which, on GPR73 (PK1 receptor) (10 µM), the “Ca^2+ Mobilization % Inh @10 μM” value was 102% and 99%. Moreover, on GPR73 (PK1 receptor), the IC50 is 0.006 µM and 0.012 µM.

“N-{2-[5-(4-Fluoro-benzyl)-1-(4-methoxy-benzyl)-4,6-dioxo-1,4,5,6-tetrahydro-[1,3,5]triazin-2-ylamino]-ethyl}-N-amino-guanidine [Cpd 93]”: on GPR73 (PK1 receptor), the “Ca^2+ Mobilization % Inh @10 μM” value is listed as 92% and the half-maximal inhibitory concentration (IC50) turned out to be 0.227 µM.

Consider “N-{2-[5-Benzyl-1-(4-methoxy-benzyl)-4,6-dioxo-1,4,5,6-tetrahydro-[1,3,5]triazin-2-ylamino]-ethyl}-oxyguanidine [Cpd 27]”, for which the “Ca^2+ Mobilization % Inh @10 μM” value at GPR73 (PK1 receptor) amounted to 55%.
